Assay results reported in patent US20260240852A1, “Use of Oral JAK Kinase Inhibitors to Treat Lichen Planus” (Mayo Foundation for Medical Education and Research, priority 2023, published 2026).
Where “and” joins values, the source holds several entries; their conditions need not be identical. Equal values may be shown once.

How the values were obtained:
Format in all cases: in vivo, human
[1] = test system: patients with biopsy-proven cutaneous LP; test: Open-label, single-arm phase 2 trial of oral baricitinib in cutaneous lichen planus: clinical efficacy
Procedure: A clinical study was conducted in which 12 patients with biopsy-proven LP were trialed on oral baricitinib at a daily dose of 2 mg for 16 weeks. Other inclusionary criteria included having at least 4 lesions of LP at baseline. The mean age of participants was 63.6 years. The vast majority were female and identified as Caucasian. A quarter were under-represented minorities. The mean duration of disease for all patients was 2.2 years. Five of the 12 participants had hypertrophic LP, and 11 were refractory to prior therapy. All but one patient had previously trialed topical steroids. Almost half (41.7%) had failed oral or IM steroids.
The primary outcome of this study was PGA at week 16, with treatment response defined as greater than 50% improvement with a PGA grade of 0 to 3. Non-responsive was defined as PGA 4 and 5. Secondary endpoints included changes from baseline to week 16 in mCAILS, pruritus scores, Skindex-16, BSA, and total lesion count.
Trial Design. A single-arm, open-label, phase 2, […] trial was conducted at Mayo Clinic, Arizona (ClinicalTrials.gov identifier NCT05188521). The Mayo Clinic Institutional Review Board approved the study (IRB 21-003075), and all patients provided written informed consent. Twelve patients with biopsy-proven cutaneous LP were administered oral baricitinib 2 mg once daily for 16-weeks. The primary endpoint was an overall response by Physician Global Assessment (PGA) of skin at week 16, with treatment response defined as PGA 0 to 3 (with ≥50% score reduction). Secondary outcomes were changes in mCAILS, total body lesion count, affected BSA, pruritus numeric rating scale (NRS), pruritus verbal rating scale (VRS), pruritus visual analog scale (VAS), pain NRS, and Skindex-16. Patients were evaluated at baseline (week 0) and weeks 2, 4, 8, 12, and 16. […] Complete responders at week 16 were reassessed at week 20 and partial responders at week 16 were reassessed at week 32, after an off-therapy period of 4 weeks, respectively.
(§1) Assessments of treatment efficacy, adverse events (AEs), and QoL were completed at each study visit. All lesions were annotated, photographed, and scored using the mCAILS criteria. 16 All clinical assessments were performed by the principal investigator and co-investigators (ARM, MRP, SZ) with questionable lesions scored by 2 investigators. The revised National Cancer Institute Common Terminology Criteria for Adverse Events version 5.0 was used for AE reporting. Due to travel issues, one patient withdrew from the study after week 8. An intention-to-treat (ITT) analysis was used with the patient's last observation to impute week 16 data.
Eligibility Criteria. Patients aged ≥18 years with biopsy-proven cutaneous LP were eligible for the trial. Both treatment-naïve and treatment-refractory disease were included. Key exclusion criteria included predominantly non-cutaneous variants of LP, active infections, and other active inflammatory cutaneous conditions.
Statistical Analysis. Patient demographics, clinical characteristics, and outcomes were summarized as mean, standard deviation, median, interquartile range for continuous variables, and frequency and percentages for categorical variables. Primary and secondary outcome differences between baseline and week 16 were compared using Wilcoxon signed rank test for continuous variables and McNemar's test for binary variables. One patient withdrew from the study after week 8, and this patient's last observation (week 8) was used to impute week 16 data in the ITT analysis.
Exact binomial method was used to calculate the treatment response rate at week 16 and its corresponding 95% confidence interval. All analyses were conducted with R version 4.1.2 (R Foundation for Statistical Computing, Vienna, Austria). The cut-off for statistical significance was set as 0.05.

[2] = Adverse event assessment in the baricitinib LP trial (CTCAE version 5.0)
Procedure: as §1

[3] = test system: patients with biopsy-proven cutaneous LP; test: Open-label, single-arm phase 2 trial of oral baricitinib in cutaneous lichen planus: clinical efficacy; settings: dose escalation, after 12 weeks of 4 mg daily, five patients
[4] = five dose-escalation patients at week 16 (after 2 mg daily), start of dose escalation
[5] = oral 2 mg once daily, baseline to week 16, ITT
[6] = oral 2 mg once daily, baseline to week 16, ITT, P 0.002
[7] = oral 2 mg once daily, baseline to week 16, ITT, P 0.003

## CCS(=O)(=O)N1CC(CC#N)(n2cc(-c3ncnc4[nH]ccc34)cn2)C1 [baricitinib]
[1]; [4]
  Patients with PGA grade 1: 80.0%
  Patients with PGA grade 4: 20%
[1]; oral 2 mg daily, by week 16, 146 at baseline (first report)
  Mean total body lesion count: 8
[1]; oral 2 mg daily, week 1
  Treatment response (PGA), patients: 37.5%
[1]; oral 2 mg daily, week 12
  Treatment response (PGA), patients: 100%
[1]; oral 2 mg daily, week 16 (primary endpoint), all but one patient
  Patients with a PGA grade of 0 or 1 (completely clear and almost clear): 90.9%
[1]; [5]
  BSA affected (%), Range, Difference: −9.8 to −0.1%
  Pain NRS, Range, Difference: −8.0 to 0.0
  Pruritus NRS, Range, Difference: −8.0 to −0.0
  Pruritus VAS, Range, Difference: −7.7 to 1.5
  Skindex-16 emotional, Range, Difference: −34.0 to 0.0
  Skindex-16 functional, Range, Difference: −15.0 to 0.0
  Skindex-16 overall, Range, Difference: −58.0 to 0.0
  Skindex-16 symptom, Range, Difference: −19.0 to 0.0
  Total Body Lesion Count, Range, Difference: −570.0 to −4.0
  mCAILS, Range, Difference: −14.6 to −5.0
[1]; [6]
  BSA affected (%), Mean (SD), Difference: −3.9 (2.9) %
  Total Body Lesion Count, Mean (SD), Difference: −134.8 (157.0)
  mCAILS, Mean (SD), Difference: −10.6 (2.9)
[1]; [7]
  Pruritus NRS, Mean (SD), Difference: −5.3 (2.6)
  Pruritus VAS, Mean (SD), Difference: −5.0 (2.6)
[1]; oral 2 mg once daily, baseline to week 16, ITT, P 0.005
  Pain NRS, Mean (SD), Difference: −5.6 (2.7)
[1]; oral 2 mg once daily, baseline to week 16, ITT, P 0.008
  Skindex-16 overall, Mean (SD), Difference: −37.3(18.3)
[1]; oral 2 mg once daily, week 16
  Pain NRS4, patients achieving: 66.7%
  Pruritus NRS improvement >4 from baseline (NRS4), patients achieving: 75.0%
[1]; oral 2 mg once daily, week 16, ITT, 12 patients
  PGA Non-responsive (n, %): 16.7%
[1]; oral 2 mg once daily, week 16, ITT, 12 patients, response = PGA 0 to 3 with ≥50% score reduction
  PGA Responsive (n, %): 83.3%
[1]; oral 2 mg once daily, week 16, ITT, baseline 4.9 (3.7), P 0.002
  BSA affected (%), Mean (SD), Week 16: 1.0% and 1.0 (2.5) %
[1]; oral 2 mg once daily, week 16, ITT, baseline 11.6 (10.2), P 0.012
  Skindex-16 functional, Mean (SD), Week 16: 4.5 (9.0)
[1]; oral 2 mg once daily, week 16, ITT, baseline 12.3 (3.2), P 0.002
  mCAILS, Mean (SD), Week 16: 1.7 (3.3)
[1]; oral 2 mg once daily, week 16, ITT, baseline 16.4 (6.0), P 0.005
  Skindex-16 symptom, Mean (SD), Week 16: 3.7 (7.0)
[1]; oral 2 mg once daily, week 16, ITT, baseline 29.9 (9.0), P 0.003
  Skindex-16 emotional, Mean (SD), Week 16: 9.0 (12.4)
[1]; oral 2 mg once daily, week 16, ITT, baseline 59.0 (22.1), P 0.008
  Skindex-16 overall, Mean (SD), Week 16: 16.9 (28.7)
[1]; oral 2 mg once daily, week 16, ITT, baseline range 0.0-30.0
  Skindex-16 functional, Range, Week 16: 0.0-30.0
[1]; oral 2 mg once daily, week 16, ITT, baseline range 0.1-12.0
  BSA affected (%), Range, Week 16: 0.0-8.5%
[1]; oral 2 mg once daily, week 16, ITT, baseline range 1.0-10.0
  Pruritus NRS, Range, Week 16: 0.0-10.0
[1]; oral 2 mg once daily, week 16, ITT, baseline range 2.7-8.8
  Pruritus VAS, Range, Week 16: 0.0-9.0
[1]; oral 2 mg once daily, week 16, ITT, baseline range 4.0-10.0
  Pain NRS, Range, Week 16: 0.0-10.0
[1]; oral 2 mg once daily, week 16, ITT, baseline range 4.0-24.0
  Skindex-16 symptom, Range, Week 16: 0.0-24.0
[1]; oral 2 mg once daily, week 16, ITT, baseline range 4.0-600.0
  Total Body Lesion Count, Range, Week 16: 0.0-117.0
[1]; oral 2 mg once daily, week 16, ITT, baseline range 7.0-18.6
  mCAILS, Range, Week 16: 0.0-8.9
[1]; oral 2 mg once daily, week 16, ITT, baseline range 17.0-42.0
  Skindex-16 emotional, Range, Week 16: 0.0-42.0
[1]; oral 2 mg once daily, week 16, ITT, baseline range 35.0-96.0
  Skindex-16 overall, Range, Week 16: 0.0-96.0
[1]; oral 2 mg once daily, SD 18.3, p=0.008
  Overall Skindex-16 score, mean decrease from baseline to week 16: 37.3
[1]; week 20, after 4 weeks of being off-therapy
  Treatment response (PGA), patients: 100%
[2]; 12 patients, oral baricitinib
  Total adverse events: 12
[2]; in vivo
  AEs leading to discontinuation: No AEs led to the discontinuation
  Serious adverse events: Serious adverse events did not occur
[2]; low neutrophil count (neutropenia), mild, not deemed serious
  Adverse events related / probably related to the study drug: one and A single AE of neutropenia
[2]; of 12 AEs
  AEs that were mild: 58.3%
  AEs that were moderate: 25.0%
  Adverse events unrelated or unlikely to be related to baricitinib: 11
[2]; the one mild AE deemed probably related to the study drug
  Absolute neutrophil count of the drug-related AE: 7.8e+08 L⁻¹
[3]
  Patients almost clear (PGA grade 1): 20.0%
  Patients completely clear of disease (PGA grade 0): 60.0%
  Patients with slight improvement (PGA grade 4): 20.0%
